Test results taken from patent publication US20120022045A1, “BRIDGED COMPOUNDS AS HIV INTEGRASE INHIBITORS” (priority 2009, published 2012).
Read-outs that look alike come from different tables or passages of the source.

Tests used:
Format in all cases: cell-based
HIV-1 wild type IIIB = experiment: Single cycle infectivity assay in HeLa P4-2 cells, wild type virus
Description: (§1) An assay for measuring the inhibition of acute HIV-1 infection with HeLa P4-2 cells in a single cycle infectivity assay was conducted using methods described in Joyce et al., J. Biol. Chem. 2002, 277: 45811, Hazuda et al., Science 2000, 287: 646, and Kimpton et al, J. Virol. 1992, 66: 2232. Proviral plasmids encoding viruses containing specific mutations in the integrase gene (N155H, Q148R, Y143R, E92Q, or G140S/Q148H) were generated by site-directed mutagenesis, and viruses were produced by transfecting 293T cells with the appropriate proviral plasmids.

[1] = system: HIV-1 integrase mutant virus Q148R; experiment: Single cycle infectivity assay in HeLa P4-2 cells, integrase mutant Q148R virus; details: fold shift in IC50 versus wild type IIIB
Description: as §1

[2] = system: HIV-1 integrase mutant virus N155H; experiment: Single cycle infectivity assay in HeLa P4-2 cells, integrase mutant N155H virus; details: fold shift in IC50 versus wild type IIIB
Description: as §1

HIV-1 = experiment: Inhibition of acute HIV-1 infection of T-lymphoid cells (spread assay); details: 10% FBS, read-out: IC95 (nM) in the presence of 10% FBS
Description: Assays for the inhibition of acute HIV-1 infection of T-lymphoid cells were conducted in accordance with Vacca, J. P. et al., Proc. Natl. Acad. Sci. USA 1994, 91: 4096.

[3] = system: HIV-1 integrase mutant virus Y143R; experiment: Single cycle infectivity assay in HeLa P4-2 cells, integrase mutant Y143R virus; details: fold shift in IC50 versus wild type IIIB
Description: as §1

[4] = system: HIV-1 integrase mutant virus G140S/Q148H; experiment: Single cycle infectivity assay in HeLa P4-2 cells, integrase mutant G140S/Q148H virus; details: fold shift in IC50 versus wild type IIIB
Description: as §1

| Compound | IC50 (HIV-1 wild type IIIB; wild type IIIB) [nM] | Q148R (shift) [1] [fold] | N155H (shift) [2] [fold] | IC95 (HIV-1) [nM] | Y143R (shift) [3] [fold] | G140S/Q148H (shift) [4] [fold] | IC50 (HIV-1 wild type IIIB; Human immunodeficiency virus 1, IIIB, HeLaP4-2, wild type IIIB) [nM] | IC95 (HIV-1; Human immunodeficiency virus 1, T-lymphoid) [nM] |
| --- | --- | --- | --- | --- | --- | --- | --- | --- |
| CCC1C2CCC(N(C)C(=O)C(=O)N(C)C)(CO2)c2nc(C(=O)NCc3ccc(F)cc3)c(O)c(=O)n21 (single isomer, unassigned) [Example 25B, N-(8-ethyl-4-{[(4-fluorobenzyl)amino]carbonyl}-5-hydroxy-6-oxo-10-oxa-3,7-diazatricyclo[7.2.2.0^2,7]trideca-2,4-dien-1-yl)-N,N′,N′-trimethylethanediamide] | 8 | 1 | 1 | 7.9 | 1 | 1 | – | – |
| CCC1C2CCC(N(C)C(=O)C(=O)N(C)C)(CO2)c2nc(C(=O)NCc3ccc(F)cc3)c(O)c(=O)n21 (single isomer, unassigned) [Example 25C, N-(8-ethyl-4-{[(4-fluorobenzyl)amino]carbonyl}-5-hydroxy-6-oxo-10-oxa-3,7-diazatricyclo[7.2.2.0^2,7]trideca-2,4-dien-1-yl)-N,N′,N′-trimethylethanediamide] | 6 | 4 | 6 | 10.8 | 3 | 88 | – | – |
| CCC1C2CCC(N(C)C(=O)C(=O)N(C)C)(CO2)c2nc(C(=O)NCc3ccc(F)cc3)c(O)c(=O)n21 (single isomer, unassigned) [Example 25D, N-(8-ethyl-4-{[(4-fluorobenzyl)amino]carbonyl}-5-hydroxy-6-oxo-10-oxa-3,7-diazatricyclo[7.2.2.0^2,7]trideca-2,4-dien-1-yl)-N,N′,N′-trimethylethanediamide] | 15 | 38 | 98 | 7.2 | 3 | >111 | – | – |
| CCC1C2CCC(NC(=O)C(=O)N(C)C)(CO2)c2nc(C(=O)NCc3ccc(F)cc3)c(O)c(=O)n21 (single isomer, unassigned) [Example 26A, N′-(8-ethyl-4-{[(4-fluorobenzyl)amino]carbonyl}-5-hydroxy-6-oxo-10-oxa-3,7-diazatricyclo[7.2.2.0^2,7]trideca-2,4-dien-1-yl)-N-dimethylethanediamide] | 24 | 9 | 9 | 16.0 | 2 | >70 | – | – |
| CCC1C2CCC(NC(=O)C(=O)N(C)C)(CO2)c2nc(C(=O)NCc3ccc(F)cc3)c(O)c(=O)n21 (single isomer, unassigned) [Example 26B, N′-(8-ethyl-4-{[(4-fluorobenzyl)amino]carbonyl}-5-hydroxy-6-oxo-10-oxa-3,7-diazatricyclo[7.2.2.0^2,7]trideca-2,4-dien-1-yl)-N-dimethylethanediamide] | 36 | 1 | 1 | 22.6 | 1 | 1 | – | – |
| CCC1C2CCC(NC(=O)C(=O)N(C)C)(CO2)c2nc(C(=O)NCc3ccc(F)cc3)c(O)c(=O)n21 (single isomer, unassigned) [Example 26C, N′-(8-ethyl-4-{[(4-fluorobenzyl)amino]carbonyl}-5-hydroxy-6-oxo-10-oxa-3,7-diazatricyclo[7.2.2.0^2,7]trideca-2,4-dien-1-yl)-N-dimethylethanediamide] | 23 | 9 | 12 | 18.1 | 2 | 26 | – | – |
| CCC1C2CCC(NC(=O)C(=O)N(C)C)(CO2)c2nc(C(=O)NCc3ccc(F)cc3)c(O)c(=O)n21 (single isomer, unassigned) [Example 26D, N′-(8-ethyl-4-{[(4-fluorobenzyl)amino]carbonyl}-5-hydroxy-6-oxo-10-oxa-3,7-diazatricyclo[7.2.2.0^2,7]trideca-2,4-dien-1-yl)-N-dimethylethanediamide] | 16 | 1 | 1 | 5.1 | 2 | 1 | – | – |
| CC1C2CCC(N(C)C(=O)C(=O)N(C)C)(CO2)c2nc(C(=O)NCc3ccc(F)cc3)c(O)c(=O)n21 (single isomer, unassigned) [Example 27A, N-(4-{[(4-fluorobenzyl)amino]carbonyl}-5-hydroxy-8-methyl-6-oxo-10-oxa-3,7-diazatricyclo[7.2.2.0^2,7]trideca-2,4-dien-1-yl)-N,N′,N′-trimethylethanediamide] | 20 | 1 | 1 | 7.5 | 1 | 2 | – | – |
| CC1C2CCC(N(C)C(=O)C(=O)N(C)C)(CO2)c2nc(C(=O)NCc3ccc(F)cc3)c(O)c(=O)n21 (single isomer, unassigned) [Example 27B, N-(4-{[(4-fluorobenzyl)amino]carbonyl}-5-hydroxy-8-methyl-6-oxo-10-oxa-3,7-diazatricyclo[7.2.2.0^2,7]trideca-2,4-dien-1-yl)-N,N′,N′-trimethylethanediamide] | 24 | 9 | 20 | 27.3 | 7 | >70 | – | – |
| CC1C2CCC(N(C)C(=O)C(=O)N(C)C)(CO2)c2nc(C(=O)NCc3ccc(F)cc3)c(O)c(=O)n21 (single isomer, unassigned) [Example 27C, N-(4-{[(4-fluorobenzyl)amino]carbonyl}-5-hydroxy-8-methyl-6-oxo-10-oxa-3,7-diazatricyclo[7.2.2.0^2,7]trideca-2,4-dien-1-yl)-N,N′,N′-trimethylethanediamide] | 15 | 12 | 11 | 7.7 | 3 | >111 | – | – |
| CC1C2CCC(N(C)C(=O)C(=O)N(C)C)(CO2)c2nc(C(=O)NCc3ccc(F)cc3)c(O)c(=O)n21 (single isomer, unassigned) [Example 27D, N-(4-{[(4-fluorobenzyl)amino]carbonyl}-5-hydroxy-8-methyl-6-oxo-10-oxa-3,7-diazatricyclo[7.2.2.0^2,7]trideca-2,4-dien-1-yl)-N,N′,N′-trimethylethanediamide] | 11 | 1 | 1 | 6.9 | 1 | 2 | – | – |
| CNC(=O)C(=O)N(C)C12CCC(OC1)C(C)n1c2nc(C(=O)NCc2ccc(F)cc2)c(O)c1=O (single isomer, unassigned) [Example 28A, N-(4-{[(4-fluorobenzyl)amino]carbonyl}-5-hydroxy-8-methyl-6-oxo-10-oxa-3,7-diazatricyclo[7.2.2.0^2,7]trideca-2,4-dien-1-yl)-N,N′-dimethylethanediamide] | – | 1 | 3 | – | 1 | 4 | 46 | 17.8 |
| CC1C2CCC(NC(=O)C(=O)N(C)C)(CO2)c2nc(C(=O)NCc3ccc(F)cc3)c(O)c(=O)n21 (single isomer, unassigned) [Example 29A, N′-(4-{[(4-Fluorobenzyl)amino]carbonyl}-5-hydroxy-8-methyl-6-oxo-10-oxa-3,7-diazatricyclo[7.2.2.0^2,7]trideca-2,4-dien-1-yl)-N-dimethylethanediamide] | 20 | 1 | 1 | 17.9 | 1 | 4 | – | – |
